{
  "source": "patent US11311523B2",
  "about": "“Pyridinone compound and use thereof” (KYUSHU UNIVERSITY, NATIONAL UNIVERSITY CORPORATION, priority 2015, dated 2022)",
  "key": {"DHR-2 domain of DOCK1": {"target": "T1, DHR-2 domain of DOCK1 (Homo sapiens, UniProt Q14185)", "T1 construct": "Polypeptide fragments that correspond to the DHR-2 domain of DOCK1, DOCK2, or DOCK5; Histidine-SUMO (N); made in house; host or cells: E. coli Arctic express (DE3)", "T1 sequence (Q14185 1207-1617 limits assumed)": "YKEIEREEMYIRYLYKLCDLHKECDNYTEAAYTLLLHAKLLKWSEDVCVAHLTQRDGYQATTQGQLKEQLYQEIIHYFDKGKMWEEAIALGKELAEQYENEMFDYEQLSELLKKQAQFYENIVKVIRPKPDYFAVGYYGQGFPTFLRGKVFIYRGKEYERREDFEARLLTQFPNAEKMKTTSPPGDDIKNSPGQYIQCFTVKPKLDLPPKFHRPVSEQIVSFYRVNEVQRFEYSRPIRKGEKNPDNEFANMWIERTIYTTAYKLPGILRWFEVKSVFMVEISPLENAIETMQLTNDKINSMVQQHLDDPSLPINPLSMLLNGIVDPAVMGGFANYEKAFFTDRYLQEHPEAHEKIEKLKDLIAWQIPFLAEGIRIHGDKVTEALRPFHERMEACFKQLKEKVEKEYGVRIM", "experiment": "in vitro GEF assay (Bodipy-FL-GTP loading of Rac)", "assay_type": "biochemical", "conditions": "from IC50 values for DOCK1, DOCK2, DOCK5", "text": "Pharmacological Test 1 (In Vitro GEF Assay)\nDOCK1, DOCK2, and DOCK5, which are DOCK-A subfamily members, catalyze the GTP-GDP exchange reaction for Rac via the DHR-2 domain to activate Rac.\nThe in vitro GEF assay referred to in this specification used a labeled GTP (Bodipy-FL-GTP, Invitrogen), whose fluorescence intensity increases when bound to Rac.\nPolypeptide fragments that correspond to the DHR-2 domain of DOCK1, DOCK2, or DOCK5 were expressed in E. coli Arctic express (DE3) cells as N-terminal Histidine-SUMO tag-fused recombinant proteins and purified by affinity column chromatography on nickel-NTA columns.\nRac was expressed in E. coli BL21 (DE3) cells as an N-terminal GST tag-fused recombinant protein and purified by affinity column chromatography on glutathione-Sepharose columns.\nSubsequently, a reaction solution A containing 20 mM of MES-NaOH, 150 mM of NaCl, 10 mM of MgCl2, and 20 μM of GDP, and having an adjusted pH of 7.0 was incubated at room temperature for 30 minutes while being protected from light in the presence of each of the polypeptide fragments (DHR-2 domains) prepared above and each pyridinone compound or CPYPP dissolved at a predetermined concentration in DMSO or DMSO alone (control) to thus prepare GEF pretreated products. In all of the samples, the final DMSO concentration was adjusted to 3%.\nThereafter, 15 μM of Rac prepared above was added to the reaction solution A and directly allowed to stand on ice for 30 minutes to form a GDP-Rac complex.\nBodipy-FL-GTP was added to 100 μL of the reaction solution A containing the thus prepared GDP-Rac complex to a concentration of 3.6 μM, followed by equilibration at 30° C. for 2 minutes. After equilibration, 50 μL of the pretreated GEF was added for reaction at 30° C.\nChanges in fluorescence intensity of Bodipy-FL-GTP were monitored during the reaction using an XS-N (Molecular Devices) or an Enspire spectrofluorometer (Perkin Elmer) (excitation wavelength: 488 nm, emission wavelength: 514 nm). The measured values were corrected so that the fluorescence intensity at the time that the reaction was initiated (0 seconds) was 0.\nThen, an approximate curve (hyperbola) was obtained by plotting the calculated correction values on the y axis and the time (t) on the x axis using GraphPad Prism5 (GraphPad software), and the slope at t=0 to 10 seconds was considered to be an initial velocity of guanine nucleotide exchange reaction. The IC50 value was calculated taking the initial reaction velocity of the control, to which only a solvent (DMSO) was added, as 100%."}, "[1]": {"tested_on": "human fibrosarcoma cell line (HT-1080)", "experiment": "cellular invasion inhibition assay (Matrigel chamber)", "assay_type": "cell-based", "conditions": "FIG. 12(C)", "description": "(§1) Pharmacological Test 2 (Cellular Invasion Inhibition Assay)\n(§2) Three hundred microliters of a suspension of a mouse lung carcinoma cell line (3LL), a human fibrosarcoma cell line (HT-1080), or a human colon cancer cell line (DLD-1) in DMEM (serum free) was placed in the upper chamber with Matrigel (BD Biosciences) equilibrated with DMEM (serum free) for 120 minutes, while 500 μL of DMEM (with 10% FCS) was placed in the lower chamber. Each pyridinone compound or CPYPP dissolved at a predetermined concentration in DMSO was added to the culture media in both the upper and lower chambers. As a control, DMSO alone was added to the media. In all of the experiments, the final DMSO concentration was adjusted to 0.2%.\n(§3) After the resulting products were cultured at 37° C. under 5% CO2 for 22 hours, the chambers were removed, and the culture media were removed. […] After staining, the inserts were cut out with a blade to prepare slides, and the cells were counted under an optical microscope.\n(§4) The results were evaluated based on percent cell invasion (%: Invasion) and percent inhibition (%: inhibition). The percent cell invasion was obtained by converting the number of invading cells under each condition to percentage, taking the number of invading cells in the control, to which DMSO was added alone, as 100%; and the percent inhibition was obtained by deducting the percent cell invasion from 100."}, "[2]": {"tested_on": "mouse lung carcinoma cell line (3LL)", "experiment": "cellular invasion inhibition assay (Matrigel chamber)", "assay_type": "cell-based", "conditions": "3LL cells; for inhibition of cancer cell (3LL) invasion: 22 hours, compared to DMSO; for pIC50: Mus musculus, FIG. 12(B), read-out: IC50 value calculated from cancer cell invasion inhibition", "description": "as §1, §2, §3, §4"}, "mouse spleen T cells": {"tested_on": "mouse spleen T cells", "experiment": "T lymphocyte migration towards CCL21 (Transwell)", "assay_type": "cell-based", "conditions": "FIG. 16(A)", "text": "Pharmacological Test. 6 (Evaluation on T Lymphocyte Migration)\nLymphocyte migration plays key roles in immune responses. T cell stimulation by chemokines, such as CCL21, induces actin cytoskeletal remodeling through Rac activation. This drives the cells to migrate towards the source of chemokines.\nTherefore, the use of various pyridinone compounds in this assay system enables cell-level verification of DOCK1 selectivity.\nMouse spleen cells at a cell concentration of 1×10^7 cells/mL were precultured at 37° C. for 1 hour in 0.5% BSA-containing RPMI-1640 (Transwell medium) containing DMSO alone or DMSO in which each pyridinone compound was dissolved at a predetermined concentration.\nSubsequently, 500 μL of Transwell medium containing 300 ng/mL of CCL21 and DMSO in which each pyridinone compound was dissolved at a predetermined concentration was added to a 24-well plate. […]\nAfter 2-hour incubation at 37° C., the cells that migrated to the lower chamber were collected and stained with PE-labeled anti-Thy1.2 antibody (53-2-1, BD Pharmingen) and APC-labeled anti-B220 antibody (RA-6B-2, eBioscience). The percentage (%) of the migrated cells was calculated by dividing the number of Thy1.2^+ cells (T cells) in the lower chamber by the number of Thy1.2^+ cells (T cells) placed into the Transwell inserts. […]"}},
  "note": "pIC50: −log10 of the molar value. “Also recorded” adds a separate entry of the source.",
  "data": [
    {"smiles": "O=C(Cn1cc(S(=O)(=O)N2CCCC2)ccc1=O)c1ccc(-c2ccc3ccccc3c2)cc1", "note": "[TS-28, 1-(2-(4-(naphthalen-2-yl)phenyl)-2-oxoethyl)-5-(pyrrolidin-1-ylsulfonyl)pyridin-2(1H)-one]", "values": [
      {"measurement": "selectivity of GEF inhibition to DOCK1 versus DOCK2 and DOCK5", "setting": "DHR-2 domain of DOCK1", "result": "high selectivity to DOCK1"},
      {"measurement": "inhibition of HT-1080 cell invasion", "setting": "[1]", "result": "inhibit HT-1080 cell invasion"},
      {"measurement": "inhibition of cancer cell (3LL) invasion", "setting": "[2]", "result": "significantly excellent inhibitory effect; also recorded: inhibit cancer cell invasion in a concentration-dependent manner"},
      {"measurement": "pIC50", "setting": "[2]", "result": 5.25},
      {"measurement": "CCL21-stimulated T cell migration", "setting": "mouse spleen T cells", "result": "did not affect"}
    ]},
    {"smiles": "O=C(Cn1cc(S(=O)(=O)N2CCCC2)ccc1=O)c1ccc(-c2cccc(C(F)(F)F)c2)cc1", "note": "[TS-45, 1-(2-oxo-2-(3′-(trifluoromethyl)-[1,1′-biphenyl]-4-yl)ethyl)-5-(pyrrolidin-1-ylsulfonyl)pyridin-2(1H)-one]", "values": [
      {"measurement": "selectivity of GEF inhibition to DOCK1 versus DOCK2 and DOCK5", "setting": "DHR-2 domain of DOCK1", "result": "high selectivity to DOCK1"},
      {"measurement": "inhibition of HT-1080 cell invasion", "setting": "[1]", "result": "inhibit HT-1080 cell invasion"},
      {"measurement": "inhibition of cancer cell (3LL) invasion", "setting": "[2]", "result": "significantly excellent inhibitory effect; also recorded: inhibit cancer cell invasion in a concentration-dependent manner"},
      {"measurement": "pIC50", "setting": "[2]", "result": 5.52},
      {"measurement": "CCL21-stimulated T cell migration", "setting": "mouse spleen T cells", "result": "did not affect"}
    ]}
  ]
}
